This data set can be described thus: gradient 5% acetonitrile 3 min, to 50% in 2 min, to 85% in 15 min, held 3 min, 100 µL/min. The note with it: column: Zorbax Extend-C18 2.1 x 50 mm; eluents: water / acetonitrile, 0.1% formic acid. An outline of the steps:
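A Zorbax Extend-C18 column (2.1 × 50 mm, 1.8 μm) run at 100 μL/min with water and acetonitrile, both containing 0.1% formic acid, separated mixtures of ~100 pure standards. The HPLC was coupled to a quadrupole time-of-flight mass spectrometer operated in positive and negative ionization mode, with dead and dwell volumes of 40 μL and 900 μL. Each retention time was taken from a computationally picked adduct peak that was then manually inspected.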
In turn, `CC(C)CN1C(=O)c2cccn2CC1CNC(=O)C1(c2ccccc2)CC1` (stereo unspecified) gave an RP-LC retention time of 832 s. The value for `CCOc1ccccc1CNC(=O)C1CCCN(c2ncnc3c2oc2ccccc23)C1` (stereo unspecified) was 813 s; that for `Cc1cnc(C2CC2)n1C1CCN(S(=O)(=O)c2ccc(C#N)cc2)CC1` was 660 s. The molecule `COCCCNC(=O)N1CCCC1c1nc(-c2ccccc2C)no1` (stereo unspecified) displayed an RP-LC retention time of 785 s. With `Cc1c(CC(=O)NC(C)C)c(=O)n2nc(-c3ccccc3)nc2n1C`, the RP-LC retention time worked out at 673 s. Turning to `COCCN1C(=O)CCc2cc(NC(=O)c3ccc(Br)o3)ccc21`, the RP-LC retention time stood at 721 s. As to `CCc1nc2cc(-c3noc(-c4ccc5ccccc5n4)n3)ccc2o1`, the RP-LC retention time came to 1110 s. In turn, `O=C(Nc1ccc(S(=O)(=O)N2CCc3ccccc32)cc1)c1ccc(Br)o1` registered an RP-LC retention time of 960 s. `O=C(C1=NN(Cc2ccccc2)c2ccccc2S1(=O)=O)N1CCCCCC1` displayed an RP-LC retention time of 974 s. Under `COc1ccc(Cl)cc1C(=O)NCCc1c[nH]c2ccc(C)cc12` stands 657 s; under `O=C(Nc1ccc(Cl)cc1)N1CCc2nc[nH]c2C1`, 594 s; under `Cc1cnc(C2CCC2)n1CC1CCN(C(=O)C2(c3ccccc3)CC2)CC1`, 592 s. The value for `Cc1ccc(CNC(=O)CCc2ccc3cc[nH]c3c2)cc1` was 879 s. In turn, `Cc1ccc(NC(=O)c2cccc([N+](=O)[O-])c2O)c(C)c1` displayed an RP-LC retention time of 951 s.

`CC(C)CCNC(=O)CN1C(=O)CCn2nc(-c3cn(C)c4ccccc34)cc21` came in with an RP-LC retention time of 807 s. `COc1ccc(OC)c(CNC(=O)c2ccc(-c3cncnc3)nc2)c1` showed an RP-LC retention time of 700 s. For `COc1ccc(-c2noc(C3CC(=O)N(c4cc(C)cc(C)c4)C3)n2)c(OC)c1` (stereo unspecified), the RP-LC retention time was determined as 970 s. Under `O=C(NC1CC1)C1CCCN(C(=O)c2cc(-c3ccccn3)n[nH]2)C1` (stereo unspecified) stands 577 s; under `CN1CCC(N2CCN(C(=O)CCC3CCCN(c4cc(NC5CC5)ncn4)C3)CC2)CC1` (stereo unspecified), 534 s; under `CCCn1cc(CCNC(=O)c2cc3ccccc3[nH]2)c2cccnc21`, 794 s. `CCN1CCN(C(=O)CN2C(=O)C3CCCCN3c3ccc(S(=O)(=O)N(C)C)cc32)CC1` (stereo unspecified) returned an RP-LC retention time of 620 s. The molecule `COc1ccc2nc(NC3=NCN(Cc4ccccc4)CN3)nc(C)c2c1` showed an RP-LC retention time of 746 s.

The molecule `COc1ccc(-c2cn3c(CC(=O)NC4CCCCC4)csc3n2)cc1OC` had an RP-LC retention time of 702 s.

In turn, `Cc1ccc(NC(=O)c2sc3nc[nH]c(=O)c3c2C)c(C)c1` showed an RP-LC retention time of 725 s. `CCN1C(=O)c2cc(S(=O)(=O)Nc3ccccc3F)ccc2Oc2cccnc21` showed an RP-LC retention time of 924 s.

Molecule `O=c1c2cc(-c3cccs3)nn2cnn1Cc1nc(-c2ccccc2Cl)no1` displayed an RP-LC retention time of 1040 s. Turning to `Cc1ccc2oc(-c3noc(C(=O)NCCCN4CCCC4)n3)c(C)c2c1`, the RP-LC retention time amounted to 717 s. The value for `CCn1ccc(C(=O)N2CCCC2(CO)Cc2ccccc2)n1` (stereo unspecified) was 790 s. With `COc1ccc(OC)c(NC(=O)C(C)Oc2ccc(=O)n(-c3ccc(F)cc3)n2)c1` (stereo unspecified), the RP-LC retention time worked out at 816 s.

For `Cc1ccc(-c2nnc(-c3ccc(Cl)c(S(=O)(=O)N4CCOCC4)c3)o2)cc1`, the RP-LC retention time worked out at 1030 s. As to `CCc1cccc(C)c1NC(=O)COc1cc(C)nc(N2CCN(c3ccccc3)CC2)n1`, the RP-LC retention time was found to be 946 s. The value for `COC(=O)CCc1c(C)nc2c(c(-c3cccs3)nn2C2CCS(=O)(=O)C2)c1C` (stereo unspecified) was 850 s; that for `O=S(=O)(NC1CCCCCC1)c1ccc(-c2nnc(C3CCC3)o2)o1` was 996 s; that for `CCOc1cc(C(=O)N2CCCC(C)(C(=O)NCc3ccc(C)cc3)C2)cc(OCC)c1OCC` (stereo unspecified) was 1010 s. Under `O=C(NCc1ccc(F)cc1F)C1CCCN(c2ccc(-c3ccccc3)nn2)C1` (stereo unspecified) stands 722 s. The molecule `CC(=O)NCCSc1c(-c2ccc(Cl)cc2)[nH]c2ccccc12` displayed an RP-LC retention time of 800 s. In the case of `COc1ccc(Cn2nccc2NC(=O)c2cc(=O)c3cc(Cl)ccc3o2)cc1`, the RP-LC retention time is 866 s. `CCc1nnc(-c2cccnc2N2CCN(C(=O)Nc3cc(F)cc(F)c3)CC2)o1` gave an RP-LC retention time of 850 s. Regarding `Cc1ncsc1CN1CCC(c2nc(-c3ccc(F)cc3)n[nH]2)CC1`, the RP-LC retention time is 918 s. For `Cn1c(N2CCCC(C(=O)NC3CCCCCC3)C2)cc(=O)n(C)c1=O` (stereo unspecified), the RP-LC retention time worked out at 715 s. For the molecule `O=C(c1cc(Cl)ccc1Cl)N1CCN(c2cc(-c3ccccc3)[nH]n2)CC1`, the RP-LC retention time turned out to be 882 s. As for `CCc1nnc(-c2cc(NS(C)(=O)=O)c(C)s2)o1`, the RP-LC retention time came out at 747 s. `Cc1ccc(C(=O)N2CC=C(C(=O)NC3CC3)CC2)cc1C`: the RP-LC retention time was 797 s.

`CC(=O)OC1CCN(C(=O)c2cccc(C#N)c2)CC1` returned an RP-LC retention time of 706 s.

For the molecule `CCc1nc2cc3c(cc2n1CC(=O)N1C(C)CCCC1C)OCCO3` (stereo unspecified), the RP-LC retention time is 668 s.

The molecule `Cc1cc2ncn(Cc3ccccc3F)c2cc1C` registered an RP-LC retention time of 582 s. For `COc1ccccc1NC1=NS(=O)(=O)c2ccccc21`, the RP-LC retention time came to 769 s. `CC(NC(=O)c1ccc2c(c1)nc1n2CCN(C2CCCCC2)C1=O)c1ccccc1` (stereo unspecified) yielded an RP-LC retention time of 836 s. Molecule `CC(C)N1CCN(Cc2ccc(C(=O)NCc3ccc(C(F)(F)F)cc3)cc2)C(=O)C1=O` returned an RP-LC retention time of 741 s. `CCc1ccc(S(=O)(=O)NCC2CCN(C(=O)Nc3ccccc3OC)CC2)s1`: the RP-LC retention time is 878 s. In turn, `Nc1nc(-c2ccccc2)nn1C(=O)c1ccc(F)cc1` came in with an RP-LC retention time of 974 s. The value for `c1ccc(N2CCN(c3nnc(-n4cccc4CN4CCN(c5ccccn5)CC4)s3)CC2)cc1` was 675 s; that for `CCOC(=O)c1cnc2nc(C)ccc2c1Nc1ccc(OC)c(OC)c1` was 587 s.

For the molecule `O=c1ccn(-c2cccc(F)c2)nc1-c1nc(-c2ccc3c(c2)OCO3)no1`, the RP-LC retention time turned out to be 846 s.

As to `COc1ccc(-c2nnc(-c3cccc(S(=O)(=O)N4CCCCC4)c3)o2)cc1`, the RP-LC retention time amounted to 1060 s.

`Cc1ccccc1CN1CCCN(c2ncccc2-c2nc(C3CC3)no2)CC1` yielded an RP-LC retention time of 711 s. The molecule `O=C(COc1cccc(Br)c1)Nc1nc(-c2ccccc2)cs1` showed an RP-LC retention time of 1130 s. Molecule `COc1ccc(NC(=O)Cc2csc3nc(-c4cccc(Cl)c4)cn23)cc1OC` returned an RP-LC retention time of 831 s. In turn, `Cc1ccc(S(=O)(=O)NC2CCN(c3ccccc3)C2=O)cc1` (stereo unspecified) came in with an RP-LC retention time of 876 s. In turn, `Cc1nnc2ccc(N3CCC(C(=O)NC(C)CCc4ccccc4)CC3)nn12` (stereo unspecified) gave an RP-LC retention time of 779 s.

With `COc1cccc(OC)c1OCC(O)CN1CCN(c2ccccc2F)CC1` (stereo unspecified), the RP-LC retention time came out at 684 s. Molecule `Cc1cccc(NC(=O)CN2CCc3[nH]c4c(C)cc(F)cc4c(=O)c3C2)c1` showed an RP-LC retention time of 626 s.

For `Cc1ccc(C)c(CN2CCC(CNC(=O)C3CCCN(c4cc(=O)n(C)c(=O)n4C)C3)CC2)c1` (stereo unspecified), the RP-LC retention time stood at 599 s. In turn, `Cc1nc(-c2ccncc2)cc2nn(CC(=O)Nc3ccc(F)c(Cl)c3)c(=O)n12` gave an RP-LC retention time of 679 s. `CCOC(=O)c1c(C)[nH]c(C(=O)N2CCCC(C(=O)NCCCN3CCCC3)C2)c1C` (stereo unspecified) showed an RP-LC retention time of 589 s.

In the case of `Cc1nn(-c2ccccc2)c2nc(N3CCCC(C(=O)NCCN4CCOCC4)C3)sc12` (stereo unspecified), the RP-LC retention time turned out to be 670 s. `CCC(C)NC(=O)c1cc(COc2ccc(NC(=O)C(C)(C)C)cc2)on1` (stereo unspecified): the RP-LC retention time is 900 s. For the molecule `COc1ccc(OC)c(NC(=O)N(C)CCc2noc(-c3ccc(Cl)cc3)n2)c1`, the RP-LC retention time turned out to be 972 s. As for `Cc1nc(C2CC23CCN(S(=O)(=O)c2cccc(F)c2)CC3)no1` (stereo unspecified), the RP-LC retention time was 888 s. For the molecule `CCn1cc(C)c(C(=O)O)c1CC(=O)NCc1cccnc1`, the RP-LC retention time was 584 s.

`CSCc1csc(NC(=O)NCc2ccc(F)cc2)n1` returned an RP-LC retention time of 754 s. On to `CC(=O)N1CC(C)Oc2ccc(S(=O)(=O)N3CCC(c4ccncc4)CC3)cc21` (stereo unspecified), for which the RP-LC retention time amounted to 572 s. Molecule `O=C(c1ccc(F)c(F)c1)N1CCc2nc(-c3ccccc3)ncc2C1` returned an RP-LC retention time of 951 s. `COCCCNC(=O)N1CC(n2cc(COc3ccc(F)cc3)nn2)C1` came in with an RP-LC retention time of 691 s.

`Cc1nn(-c2ccccc2)c(C)c1CCc1nn2c(-c3cccc(F)c3)nnc2s1` showed an RP-LC retention time of 934 s. Regarding `O=C(N[C@H]1C[C@@H]2C[C@H]1N(S(=O)(=O)c1ccc3c(c1)CCC3)C2)c1cccs1`, the RP-LC retention time was determined as 943 s. Under `Cc1ccc2c(Nc3ccc(C)c(F)c3)c(-c3nc(C)no3)cnc2n1` stands 807 s. In the case of `COC(=O)c1ccc2c(=O)n(-c3ccc(C)c(F)c3)c(N3CCCC3)nc2c1`, the RP-LC retention time is 1020 s.

In the case of `COc1ccc(Cc2nnc(N)o2)cc1`, the RP-LC retention time worked out at 596 s.

Take `O=C(NCCC1=CCCCC1)c1nnc(-c2ccc(S(=O)(=O)N3CCOCC3)cc2)o1`: the RP-LC retention time came out at 984 s. In turn, `CCCNC(=O)C1Cc2cc(S(=O)(=O)N3CCCCC3)ccc2N1C(=O)CC` (stereo unspecified) gave an RP-LC retention time of 800 s.

For the origin of these results see the METLIN SMRT retention time set (Domingo-Almenara et al. 2019).
